Measured values published in ChEMBL document CHEMBL5543059, “Discovery of anti-inflammatory natural flavonoids: Diverse scaffolds and promising leads for drug discovery” (Eur J Med Chem, 2023).

Test system: B16-F10
Assay: Anti-inflammatory activity in LPS-stimulated mouse B16-F10 cells assessed as reduction in TNFalpha production measured for 12 hrs by ELISA method
Format: functional, cell-based
Settings: B16-F10, 12 h

Structure (SMILES)	IC50
COc1c(OC)c(O)c2c(=O)cc(-c3ccc(O)cc3)oc2c1OC [XANTHOMICROL]	3.8 µM
COc1c(OC)c(O)c2c(=O)cc(-c3ccc(O)c(O)c3)oc2c1OC [SIDERITIFLAVONE]	5.6 µM
COc1ccc2oc(-c3ccc(OC)c(OC)c3)cc(=O)c2c1	1.3 µM

Test system: RAW264.7
Assay: Antiinflammatory activity in LPS-activated mouse RAW264.7 cells assessed as inhibition of ROS production at 10 uM relative to control
Format: functional
Parameters: scale not given: the % may be the effect or the level left
Settings: not given

Structure (SMILES)	Activity
COc1cc(O)ccc1/C=C/C(=O)c1ccc(O)cc1 [ECHINATIN]	80%
C=CC(C)(C)c1cc(/C=C/C(=O)c2ccc(O)cc2)c(OC)c(O)c1O	80%
COc1c(/C=C/C(=O)c2ccc(O)cc2)ccc(O)c1O	80%

Test system: BV-2
Assay: Antiinflammatory activity in mouse BV-2 cells assessed as reduction in LPS-induced NO production pre-treated with compound for 1 hr followed by LPS-stimulation and measured for 23 hrs by Griess reagent based analysis
Format: functional, cell-based
Settings: not given

Structure (SMILES)	IC50
COc1c(-c2ccc(O)c(O)c2)oc2c(CC=C(C)C)c3c(c(O)c2c1=O)C=CC(C)(C)O3	6.88 µM
COc1c(-c2ccc3c(c2)OCO3)oc2c(ccc3oc(C(C)(C)O)cc32)c1=O	11.3 µM
COc1c(-c2ccccc2)oc2c3c(ccc2c1=O)OC(C)(C)[C@H](O)C3	11.3 µM
COc1cc2oc(-c3ccc4c(c3)OCO4)c(OC)c(=O)c2cc1OC	11.3 µM
CC(C)=CCc1cc(-c2oc3cc(O)cc(O)c3c(=O)c2O)ccc1O [ISOLICOFLAVONOL]	2.88 µM

Test system: Neutrophil
Assay: Inhibition of fMLF/CB-induced human Neutrophil activation assessed as reduction in elastase release
Format: functional, cell-based
Settings: not given

Structure (SMILES)	IC50
CC1(C)CCC[C@@]2(C)Oc3c(ccc4oc(-c5ccc(O)c(O)c5)cc(=O)c34)C[C@@]12C	1.9 µM
c1ccc2c(c1)[I+]c1ccccc1-2 [DIPHENYLENEIODONIUM]	1 µM
O=C1C[C@@H](c2ccc(O)cc2)Oc2cc(O)cc(O)c21 [NARINGENIN]	5.3 µM
Cc1cc2oc(-c3ccc(O)c(O)c3)cc(=O)c2c2c1C[C@@]1(C)C(C)(C)CCC[C@@]1(C)O2	3.8 µM

Test system: BV-2
Assay: Anti-inflammatory activity in mouse BV-2 cells assessed as inhibition of LPS-induced NO production preincubated with compound for 1 hrs followed by LPS stimulation and measured after 24 hrs by Griess reagent based assay
Format: functional, cell-based
Settings: not given

Structure (SMILES)	IC50
COc1ccc(-c2oc3cc(O)cc(O)c3c(=O)c2OC)cc1O	11.1 µM
COc1cc(O)c2c(=O)c(OC)c(-c3ccc(O)c(O)c3)oc2c1	4.2 µM

Test system: BV-2
Assay: Anti-inflammatory activity in mouse BV-2 cells assessed as reduction in LPS-induced NO production pre-treated with compounds for 2 hrs followed by LPS-stimulation measured for 22 hrs by Griess reagent based analysis
Format: functional, cell-based
Settings: not given

Structure (SMILES)	IC50
COc1c(/C=C/C(=O)c2ccccc2)c(O)cc2occc12	10.9 µM
CC(C)=CCc1cc(C(=O)/C=C/c2ccc(O)cc2O)c(O)cc1O	2.26 µM

The remaining lines, values ahead:

IC50	Structure (SMILES)
5.9 µM	CC(C)=CCc1c(O)ccc(C(=O)/C=C/c2cc3c(cc2O)OCO3)c1O
29.2 µM	COc1c([C@@H](CC(=O)c2ccccc2)OC)c(O)cc2occc12

Test system: RAW264.7
Assay: Anti-inflammatory activity in LPS-stimulated mouse RAW264.7 cells assessed as inhibition of NO production incubated for 24 hrs by Griess reagent based assay
Format: functional, cell-based
Settings: RAW264.7, 24 h

Structure (SMILES)	IC50
COc1cc(O)c2c(=O)cc(-c3ccc(O)cc3)oc2c1 [GENKWANIN]	5.64 µM

Test system: RAW264.7
Assay: Antiinflammatory activity in LPS-induced mouse RAW264.7 cells assessed as reduction in COX2 mRNA expression incubated for 24 hrs by qRT-PCR analysis
Format: functional, cell-based
Settings: RAW264.7, 24 h

Structure (SMILES)	IC50
CC(C)=CCC/C(C)=C/Cc1c(C2CC(=O)c3c(O)cc(O)cc3O2)ccc(O)c1O (stereo unspecified)	11.7 µM
CC(C)=CCC/C(C)=C/Cc1c(O)cc2c(c1O)C(=O)CC(c1ccc(O)c(O)c1)O2 (stereo unspecified)	11.7 µM
CC(C)=CCC/C(C)=C/Cc1cc(C2CC(=O)c3c(O)cc(O)cc3O2)ccc1O (stereo unspecified)	11.7 µM
CC(C)=CCC/C(C)=C/Cc1cc(C2CC(=O)c3c(O)cc(O)cc3O2)cc(O)c1O (stereo unspecified)	11.7 µM

Test system: not listed separately
Assay: Anti-inflammatory activity in carrageenan-induced human PBMC cells assessed as inhibition of IL-beta leakage at 10 uM measured for 24 hrs relative to control
Format: functional
Parameters: scale not given: the % may be the effect or the level left
Settings: not given

Structure (SMILES)	Activity
COc1ccc(-c2cc(=O)c3c(O)c(OC)c(OC)c(OC)c3o2)cc1 [GARDENIN B]	33.8%
COc1ccc(-c2cc(=O)c3c(O)c(OC)c(OC)cc3o2)cc1OC	16.8%
COc1ccc(-c2cc(=O)c3c(O)c(OC)c(OC)c(O)c3o2)cc1OC	34.4%

Test system: J774.A1
Assay: Anti-inflammatory activity in mouse J774.A1 macrophage cells assessed as reduction in LPS-induced TNF-alpha production
Format: functional, cell-based
Settings: not given

Structure (SMILES)	IC50
COc1cc2oc(-c3ccccc3)cc(=O)c2c(O)c1O	0.22 µM
COc1c2c(cc3oc(-c4ccccc4)cc(=O)c13)OCO2	0.22 µM
COc1cc2oc(-c3ccccc3)cc(=O)c2c(O)c1OC [MOSLOFLAVONE]	0.22 µM

Test system: RAW264.7
Assay: Anti-inflammatory activity in mouse RAW264.7 cells assessed as inhibition of LPS-induced nitric oxide production measured after 18 hrs by Griess assay
Format: functional, cell-based
Settings: RAW264.7, 18 h

Structure (SMILES)	IC50
Cc1c(O)c(C)c2c(c1O)C(=O)C[C@@H](c1ccc(O)c(O)c1)O2	20 µM
Cc1c(O)c2c(c(C(=O)C(C)C)c1O)OC(c1ccccc1)CC2=O (stereo unspecified)	9.73 µM
O=C1CC(c2ccc(O)cc2O)Oc2cc(O)cc(O)c21 (stereo unspecified) [STEPPOGENIN]	6.1 µg/mL

Test system: Mus musculus
Assay: Antiinflammatory activity against TPA-induced CD-1 mouse ear edema model assessed as reduction in ear edema at 0.25 mg/kg relative to control
Format: functional
Parameters: scale not given: the % may be the effect or the level left
Settings: not given

Structure (SMILES)	Activity
COc1cc(O)c2c(c1)O[C@H](c1ccc(O)cc1)CC2=O [SAKURANETIN]	45.8%
O=C1C[C@@H](c2ccccc2)Oc2cc(O)cc(O)c21 [PINOCEMBRIN]	67.4%
O=C1C[C@@H](c2ccc(O)cc2)Oc2cc(O)cc(O)c21 [NARINGENIN]	42%

Test system: Neutrophil
Assay: Inhibition of fMLF/CB-induced human Neutrophil activation assessed as reduction in superoxide anion
Format: functional, cell-based
Settings: not given

Structure (SMILES)	IC50
CC1(C)CCC[C@@]2(C)Oc3c(ccc4oc(-c5ccc(O)c(O)c5)cc(=O)c34)C[C@@]12C	2.2 µM
O=C1C[C@@H](c2ccc(O)cc2)Oc2cc(O)cc(O)c21 [NARINGENIN]	3.3 µM
Cc1cc2oc(-c3ccc(O)c(O)c3)cc(=O)c2c2c1C[C@@]1(C)C(C)(C)CCC[C@@]1(C)O2	5.8 µM
O=S(=O)(F)Cc1ccccc1 [PHENYLMETHYLSULFONYLFLUORIDE]	95 µM

Test system: BV-2
Assay: Antiinflammatory activity against mouse BV-2 cells assessed as reduction in LPS induced NO production measured for 24 hrs by Griess reagent based analysis
Format: functional, cell-based
Settings: BV-2, 24 h

Structure (SMILES)	IC50
Oc1cc(O)c2c(c1)O[C@H](c1cc(O)c(O)c(O)c1)[C@@H](O)C2 [GALLOCATECHIN]	30.3 µM
Oc1cc(O)c2c(c1)O[C@H](c1ccc(O)c(O)c1)[C@@H](O)C2 [CIANIDANOL]	26.1 µM

Next, values leading:

IC50	Structure (SMILES)
29.1 µM	Oc1cc(O)c2c(c1)O[C@@H](c1ccc(O)c(O)c1)[C@@H](O)C2 [(+)-EPICATECHIN]
14.8 µM	CNC(=N)NCCC[C@H](N)C(=O)O [TILARGININE]

Test system: THP-1
Assay: Anti-inflammatory activity in LPS-stimulated human THP-1 cells assessed as reduction of TNFalpha measured for 12 hrs by ELISA method
Format: functional, cell-based
Settings: THP-1, 12 h

Structure (SMILES)	IC50
COc1c(OC)c(O)c2c(=O)cc(-c3ccc(O)cc3)oc2c1OC [XANTHOMICROL]	8.1 µM
COc1c(OC)c(O)c2c(=O)cc(-c3ccc(O)c(O)c3)oc2c1OC [SIDERITIFLAVONE]	12.4 µM
COc1ccc2oc(-c3ccc(OC)c(OC)c3)cc(=O)c2c1	2.4 µM

Test system: Neutrophil
Assay: Inhibition of fMLF/CB-induced human Neutrophil activation assessed as reduction in superoxide anion generation pre-incubated for 2 mins prior to CB induction for 3 mins followed by fMLF addition by spectrophotometric analysis
Format: functional, cell-based
Settings: not given

Structure (SMILES)	IC50
COc1cc(O)c2c(=O)cc(-c3cc(OC)c(OC/C=C(\C)CCC=C(C)C)c(OC)c3)oc2c1	≤ 12.5 µM
COc1cc(O)c2c(=O)cc(-c3ccc(OC)c(OC/C=C(\C)CCC=C(C)C)c3)oc2c1	≤ 12.5 µM
COc1cc(O)c2c(=O)cc(-c3ccc(OC)c(OC)c3)oc2c1	≤ 12.5 µM

Test system: Mus musculus
Assay: Antiinflammatory activity against TPA-induced CD-1 mouse ear edema model assessed as reduction in ear edema at 1 uM relative to control
Format: functional
Parameters: scale not given: the % may be the effect or the level left
Settings: not given

Structure (SMILES)	Activity
O=C1c2c(O)cc(O)cc2O[C@H](c2ccccc2)[C@H]1O [PINOBAKSIN]	12.28%
O=C1c2c(O)cc(O)cc2O[C@H](c2ccc(O)c(O)c2)[C@H]1O [(+)-TAXIFOLIN]	12%

Test system: RAW264.7
Assay: Anti-neuroinflammatory activity in mouse RAW264.7 cells assessed as inhibition of LPS-induced NO production pre-incubated for 1 hr followed by LPS stimulation and measured after 24 hrs by Griess reagent based assay
Format: functional, cell-based
Settings: not given

Structure (SMILES)	IC50
C=C(C)c1cc2c(OC)c3c(O)c(-c4ccc(OC)cc4)c(=O)oc3c(OC)c2o1	0.89 µM
C=C(C)c1cc2c(OC)c3c(O)c(-c4ccc5c(c4)OCO5)c(=O)oc3c(OC)c2o1	0.89 µM
COc1ccc(-c2c(O)c3c(OC)c4c(OC)c(C(C)C)oc4c(OC)c3oc2=O)cc1OC	0.89 µM
COc1c2c(cc3oc(=O)c(-c4ccc(O)cc4)c(O)c13)OC(C)(C)C=C2	0.89 µM
C=C(C)c1oc2c(OC)c3oc(=O)c(-c4ccc(OC)cc4)c(O)c3c(OC)c2c1OC	0.89 µM
COc1ccc(-c2c(OC)c3c(OC)c4cc(C(C)(C)O)oc4cc3oc2=O)cc1	0.89 µM
COc1c(-c2ccc3c(c2)OCO3)c(=O)oc2cc3oc(C(C)(C)O)cc3c(OC)c12	0.89 µM

Test system: RAW264.7
Assay: Antiinflammatory activity in mouse RAW264.7 cells assessed as decrease in LPS-induced IL-6 secretion after 24 hrs by ELISA method
Format: functional, cell-based
Settings: RAW264.7, 24 h

Structure (SMILES)	IC50
COc1cc2c(c(C)c1OC)O[C@H](c1cc(O)c(OC)c(O)c1)CC2	18 µM
COc1ccc2c(c1)O[C@H](c1ccc(O)cc1O)CC2	21.8 µM
COc1ccc([C@@H]2CCc3cc(OC)c(O)cc3O2)cc1O	12.5 µM

Test system: J774.A1
Assay: Antiinflammatory activity in LPS-induced mouse J774.A1 macrophage cells assessed as reduction in LPS-induced IL-1 beta level
Format: functional, cell-based
Settings: not given

Structure (SMILES)	IC50
COc1cc2oc(-c3ccccc3)cc(=O)c2c(O)c1O	6.4 µM
COc1c2c(cc3oc(-c4ccccc4)cc(=O)c13)OCO2	6.4 µM
COc1cc2oc(-c3ccccc3)cc(=O)c2c(O)c1OC [MOSLOFLAVONE]	6.4 µM

Test system: Macrophage
Assay: Anti-inflammatory activity in mouse macrophages extracted from abdominal activity assessed as inhibition of LPS-induced nitric oxide production
Format: functional, cell-based
Settings: not given

Structure (SMILES)	IC50
COc1cc2occ(-c3ccc(O)cc3)c(=O)c2c(OC)c1CC=C(C)C	2.46 µM
COc1c(O)cc2oc(-c3ccc(O)c(O)c3)cc(=O)c2c1O [EUPAFOLIN]	60 µM

Second part, the compound after the results:

IC50	Structure (SMILES)
5.36 µM	COc1cc(-c2coc3cc(O)c(CC=C(C)C)c(O)c3c2=O)c(OC)cc1O [VIRIDIFLORIN]
4.68 µM	COc1ccc(-c2coc3cc(O)c(CC=C(C)C)c(O)c3c2=O)c(O)c1
2.06 µM	COc1ccc(-c2coc3cc(OC)c(CC=C(C)C)c(OC)c3c2=O)cc1
6.72 µM	COc1cc(-c2coc3cc(O)c(CC=C(C)C)c(O)c3c2=O)c(O)cc1O

Test system: BV-2
Assay: Anti-inflammatory activity in mouse BV-2 cells assessed as reduction in LPS-induced NO production pretreated for 1 hr followed by LPS-stimulation and measured after 18 hrs by 2,3-diaminonaphthalene reagent based fluorescence analysis
Format: functional, cell-based
Settings: not given

Structure (SMILES)	IC50
COc1c(O)ccc2c1OC[C@H](c1cc3c(cc1O)OCO3)[C@H]2O	46.3 µM
COc1ccc(-c2cc3cc(O)c(O)cc3oc2=O)c(OC)c1OC	28.3 µM
Oc1ccc2c(c1)OC[C@H](c1cc3c(cc1O)OCO3)[C@H]2O	40.1 µM
